This is an account of results in patent US4996236A, “Therapeutic composition for hepatic encephalopathy” (Takeda Chemical Industries, Ltd., priority 1988, dated 1991).

Structures are written as SMILES.

The nature of data set [1]: Blood ammonia level-lowering effect in rats on high-protein diet. The note with it: for Blood ammonia level: 7 days, mean ± S.D., 5 animals. The format is in vivo, rat (male SD). How it is done:
The blood ammonia level-lowering effect of N-(1,3-dihydroxy-2-propyl)valiolamine in rats
Male SD rats aged […] were fed either on a regular diet or a high-protein powder diet containing 61% of casein for 7 days. N-(1,3-dihydroxy-2-propyl)valiolamine (hereinafter referred to shortly as AO-128) was added to the high-protein diet at final concentrations of 10 and 50 ppm. The animals had free access to the diets and the mean daily food intake was approximately 18 g/day. On the 7th day, laparotomy was performed under ether anesthesia and the blood was collected from the abdominal aorta. The blood ammonia level was estimated using an assay kit, a product of WAKO.

A short description of data set [2]: Acute oral toxicity in rats. The note with it: rat, in vivo, rats (Wistar).
Data set [3] in a line: Acute oral toxicity in mice. The note with it: mouse, in vivo, mice (NRMI).
For data set [4] the following is noted: diabetics accompanied with hepatocirrhosis; cited from earlier work.
The next data set relates to α-glucosidase. Conditions: cited from earlier work.

Usually LD50 stands for the dose at which mortality reaches 50%. As for `OCC(CO)N[C@H]1C[C@](O)(CO)[C@@H](O)[C@H](O)[C@H]1O` [AO-128, N-(1,3-dihydroxy-2-propyl)valiolamine], the Blood ammonia level stood at 88 ± 7 µg/dL in data set [1] (10 ppm AO-128 in high-protein diet (61% casein)) and 90 ± 8 µg/dL in data set [1] (50 ppm AO-128 in high-protein diet (61% casein)). The “blood ammonia level versus high-protein diet control group” value in data set [1] (AO-128 treated high-protein diet group, 10 and 50 ppm) was “overtly lower blood ammonia level than the high-protein diet control group”. Further, the figures for the LD50 in data set [2] and in data set [3] were around 20000 mg/kg and 14700 to 21500 mg/kg, respectively.

Consider `C[C@H]1O[C@H](O[C@H]2[C@H](O)[C@@H](O)[C@@H](O[C@H]3[C@H](O)[C@@H](O)C(O)O[C@@H]3CO)O[C@@H]2CO)[C@H](O)[C@@H](O)[C@@H]1N[C@H]1C=C(CO)[C@@H](O)[C@H](O)[C@H]1O` (stereo partly shown) [acarbose], for which the “effect on blood ammonia level” value in data set [4] was “lowers the blood ammonia level”. For the same molecule, in the data set with α-glucosidase, the “α-glucosidase inhibitory activity” value was “α-glucosidase inhibitor”.
